Experimental findings from the METLIN SMRT retention time set (Domingo-Almenara et al. 2019) are described below.

The nature of this data set: gradient 5% acetonitrile 3 min, to 50% in 2 min, to 85% in 15 min, held 3 min, 100 µL/min. Particulars: column: Zorbax Extend-C18 2.1 x 50 mm; eluents: water / acetonitrile, 0.1% formic acid. Put shortly: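 Pure standards were analyzed in mixtures of ~100 molecules using HPLC coupled to a quadrupole time-of-flight mass spectrometer, in both positive and negative ionization mode. Separation used a Zorbax Extend-C18 column (2.1 × 50 mm, 1.8 μm) at 100 μL/min, with water and acetonitrile each containing 0.1% formic acid. Dead and dwell volumes were 40 μL and 900 μL, and data were collected over 3 months. Retention time was read from computationally picked adduct peaks, each inspected manually.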
The compound `CCOc1ccc(-n2nnnc2CN2CCN(S(=O)(=O)c3cccs3)CC2)cc1` gave an RP-LC retention time of 874 s.

In turn, `CCN1CCCc2cc(C(=O)NCc3cccc(OC)c3)sc21` had an RP-LC retention time of 962 s.

`CCc1cc(C(=O)N2CCN(CC(C)C)CC2)nc2cc(-c3ccccn3)nn12`: the RP-LC retention time is 610 s.

`CCOc1ccccc1NS(=O)(=O)c1cc(-c2cc(C(F)(F)F)on2)sc1C` came in with an RP-LC retention time of 1120 s.

Turning to `COCCNS(=O)(=O)c1cc2c(cc1C)CCN2C(C)=O`, the RP-LC retention time amounted to 657 s.

Take `CCN1CCCC1CNC(=O)CN1C(=O)C2CCCCN2c2ccc(C(=O)N(C)C)cc21` (stereo not drawn): the RP-LC retention time turned out to be 596 s.

In the case of `Cn1ccc2cc(S(=O)(=O)N3CCCC(C(=O)N4CCN(c5ccccn5)CC4)C3)ccc21` (stereo not drawn), the RP-LC retention time worked out at 663 s.

`O=C1NCCCCCCN(C(=O)c2cnccn2)[C@H]2CCCC[C@@H]12` had an RP-LC retention time of 684 s.

Take `c1cc(-c2nnc3sc(-c4csc5c4CCCC5)nn23)ccn1`: the RP-LC retention time worked out at 993 s.

Regarding `COc1cccc(-c2noc(-c3nn(-c4cccc(F)c4)ccc3=O)n2)c1OC`, the RP-LC retention time worked out at 807 s.

Consider `CC(C)c1ccc2c(c1)-c1ccccc1S(=O)(=O)N2CC(=O)NCc1ccccn1`, for which the RP-LC retention time came to 757 s.

Turning to `CC(=O)Oc1ccc(OC(C)=O)c2c1CC(C)=C(C)C2`, the RP-LC retention time is 1110 s.

`CC(C)(C)c1cc(C(=O)NCc2ccc(F)cc2)nc2ccnn12` had an RP-LC retention time of 1140 s.

For `Cc1ccc(OCc2nc(Cc3nc(-c4ccccc4)oc3C)no2)cc1`, the RP-LC retention time was determined as 1170 s.

`COCCNc1c(-c2ccccc2)nc2sc(C(=O)N(C)C)c(C)n12` returned an RP-LC retention time of 643 s.

As to `Cc1ccc(F)cc1NC(=O)Cn1cnc2nc(N3CCCC(C(=O)NC4CC4)C3)sc2c1=O` (stereo not drawn), the RP-LC retention time is 686 s.

`O=C(Nc1ccccc1Cl)N1CCC(N2CC(F)(F)C[C@H]2COCC2CC2)CC1`: the RP-LC retention time was 720 s.

`CCSc1ccc(-n2ncc(C(=O)NC3CC3)c2C)nn1` displayed an RP-LC retention time of 722 s.

Compound `O=C(C1CCCN(c2ncnc3c2nc2n3CCCCC2)C1)N1CCN(c2ccc(Cl)cc2)CC1` (stereo not drawn) registered an RP-LC retention time of 928 s.

On to `COc1ccccc1CN1CCc2nc(N3CCN(c4ncccn4)CC3)ncc2C1`, for which the RP-LC retention time came out at 716 s.

Take `CC(C)c1ccc(OCC(=O)NCCS(=O)(=O)N2CCN(c3ncccn3)CC2)cc1`: the RP-LC retention time amounted to 856 s.

The compound `CC(C)Oc1ccc(CNC(=O)c2nnc(-c3ccc(S(=O)(=O)N4CCCC4)cc3)o2)cc1` showed an RP-LC retention time of 1000 s.

`O=C(O)C1CN(C(=O)COc2ccccc2F)C1` yielded an RP-LC retention time of 604 s.

`CCCN1CCN(c2cc(C(=O)O)c3cc(NS(=O)(=O)c4ccc(C)cc4)ccc3n2)CC1` returned an RP-LC retention time of 638 s.

`CCc1noc(NC(C)=O)c1-c1ccc(C)c(S(=O)(=O)N2CCN(c3ccccc3F)CC2)c1` displayed an RP-LC retention time of 723 s.

The compound `Cc1noc(C)c1S(=O)(=O)N1C[C@@H](F)C[C@H]1C(=O)N1CCCCC1` displayed an RP-LC retention time of 765 s.

Take `Cc1nn(-c2cc(N3CCCCC3)ncn2)c(C)c1CCC(=O)Nc1ccc2c(c1)OCO2`: the RP-LC retention time worked out at 921 s.

With `Cc1cccc(-c2noc(-c3ccc(N4CCN(C5CCCCC5)CC4)nc3)n2)c1`, the RP-LC retention time was 831 s.

Take `CCOc1cccc(-c2noc(CCn3nc(-c4ccc5c(c4)OCO5)ccc3=O)n2)c1`: the RP-LC retention time is 978 s.

As for `CCC(c1cccs1)N1C(=O)[C@H]2CN(S(=O)(=O)c3cccc(C)c3)C[C@H]2C1=O` (stereo partly drawn), the RP-LC retention time was determined as 1040 s.

In the case of `CCN1C(=O)c2cccnc2Sc2cc(NC(=O)c3ccccc3OC)ccc21`, the RP-LC retention time stood at 868 s.

`CSc1ccc(CNC(=O)C2CCCN(c3ccnc(-c4ccc(F)cc4)n3)C2)cc1` (stereo not drawn) displayed an RP-LC retention time of 728 s.

Turning to `Cc1nc2c(sc3nc(-c4ccccc4)ccc32)c(=O)n1CC(=O)Nc1ccc(Cl)cc1`, the RP-LC retention time turned out to be 1120 s.

On to `COCC1CN(C2CCC2)CC12CCN(C(=O)c1ccsc1)CC2` (stereo not drawn), for which the RP-LC retention time turned out to be 592 s.

The compound `O=C1CCC(NC(=O)c2ccccc2)C(=O)N1` (stereo not drawn) had an RP-LC retention time of 650 s.

`O=C(CCn1cnc2cc(-c3noc(COc4ccccc4)n3)ccc21)N1CCCC1` displayed an RP-LC retention time of 730 s.

As for `CC1=C(c2ccc(C)c(C)c2)S(=O)(=O)N=C1N1CCCN(C(=O)c2ccccn2)CC1`, the RP-LC retention time came to 771 s.

Turning to `Cc1c(S(=O)(=O)Nc2ccccc2)c(C)n(C)c1-c1nnc(C2CCC2)o1`, the RP-LC retention time amounted to 870 s.

Compound `Cc1ccccc1OCc1ccc(-c2nc(C#N)c(NCCN(C)C)o2)o1` showed an RP-LC retention time of 707 s.

In the case of `COc1cccc(NS(=O)(=O)c2c[nH]c3ncccc23)c1`, the RP-LC retention time amounted to 688 s.

`Cn1nc(-c2nnc(-c3ccccc3)o2)c2c1CCN(S(=O)(=O)c1ccc(Cl)cc1)C2` registered an RP-LC retention time of 992 s.

For `CCc1cccc(NC(=O)c2cc(CC)n3nccc3n2)c1`, the RP-LC retention time amounted to 1150 s.

`O=C(NC1CCCC1)c1ccc(CN2CCN(Cc3ccccc3)C(=O)C2=O)cc1` showed an RP-LC retention time of 734 s.

The compound `Cc1ccc(OCC(=O)Nc2cncc(-c3nc4ccccc4o3)c2)cc1` showed an RP-LC retention time of 1010 s.

Compound `CC1(C(=O)NCc2ccc(Cl)cc2)CN(S(C)(=O)=O)CC(=O)N1CCCc1ccccc1` (stereo not drawn) registered an RP-LC retention time of 953 s.

In turn, `CCc1nc(-c2csc(S(=O)(=O)N3CCCC(C(=O)Nc4cc(C)ccc4OC)C3)c2)no1` (stereo not drawn) returned an RP-LC retention time of 1130 s.

In the case of `Cc1occc1-c1nnc2sc(COc3ccc(F)cc3)nn12`, the RP-LC retention time turned out to be 939 s.

In turn, `Cc1cc(N2CCCC2)n2nc(CN3CCN(c4ccccc4F)CC3)nc2n1` came in with an RP-LC retention time of 622 s.

With `Cc1ccc(N2CC(C(=O)Nc3cc(-c4nc(C)cs4)sc3C)CC2=O)cc1` (stereo not drawn), the RP-LC retention time worked out at 848 s.

`Cc1cc(OCC(O)CN2CCN(C)CC2)ccc1Cl` (stereo not drawn) gave an RP-LC retention time of 558 s.

In turn, `O=C1NC2(CCN(C(=O)c3cccc(Cl)c3)CC2)N=C1c1ccccc1` returned an RP-LC retention time of 832 s.

With `CC(C)n1c(N2CCN(C(=O)COc3ccc(Cl)cc3)CC2)cc(=O)n(C(C)C)c1=O`, the RP-LC retention time came to 928 s.

Compound `CCCCS(=O)(=O)c1cc2c(cc1NC(=O)Cc1ccc(Cl)cc1)n(C)c(=O)n2C` registered an RP-LC retention time of 919 s.

Turning to `CCCOc1ccnc2c1c(=O)n(CC(=O)Nc1cc(C)on1)c(=O)n2C`, the RP-LC retention time was 675 s.

In the case of `Cc1c(Cl)cccc1NC(=O)CCOc1ccccc1`, the RP-LC retention time amounted to 888 s.

Turning to `COc1ccc(-n2ccc(=O)c(-c3nc(-c4ccc(OC(C)C)cc4)no3)n2)cc1`, the RP-LC retention time was 982 s.

For the compound `CC1CCN(S(=O)(=O)c2ccc(-c3nnc(C(=O)NCCCN4CCN(C)CC4)o3)cc2)CC1`, the RP-LC retention time was 623 s.

`CCc1ccc(NC(=O)CSc2ccc(N3CCC(C(=O)NC(C)C)CC3)nn2)cc1` gave an RP-LC retention time of 680 s.
